Experimental data taken from patent US20130209359A1, “Small Peptides Specifically Bind to Colorectal Cancers” (The Johns Hopkins University, priority 2007, published 2013).

Tests used:
Type in all cases: cell-based
[1] = system: colon adenocarcinoma cell lines (Caco-2, HCT15, HCT116, LoVo, HT29); assay: Binding and overnight release/retention of 32P-labeled decapeptide; conditions: two-hour incubation
Experimental: (§1) Assay of the binding of ^32P-labeled decapeptides to cell lines: Cell lines were grown in complete medium containing 10% bovine fetal serum (heat inactivated). In each well of a 96-well plate, 10,000 cells from various cell lines were grown overnight in complete medium. Ten μl of the labeled-peptide in 1×PBS and 90 μl of complete medium were added to each well and incubated at 37° C. at various times of up to two hours. The peptide-medium was removed and one μl added to 100 ul gel loading buffer and counted by scintillation counting for the probe control or run on a polyacrylamide-SDS gel (Biorad). The adherent cells were briefly and gently washed with complete medium three times and some wells were assayed immediately by adding 100 μl of gel loading buffer to each well and run on a gel or counted in a scintillation counter. Other wells had 100 μl complete medium added and incubated for a further time period. Samples were either counted in a liquid scintillation counter or run on polyacrylamide-SDS gels, exposed to x-ray film, and the film developed.

[2] = system: HeLa S3 cervical cancer cells; assay: Binding of 32P-labeled decapeptides to cell lines; conditions: two-hour incubation, washes; average
Experimental: as §1

[3] = system: eleven nonbinding cell lines; assay: Binding of 32P-labeled decapeptides to cell lines
Experimental: as §1

[4] = system: Caco-2 colon adenocarcinoma cell line; assay: Binding of 32P-labeled decapeptides to cell lines
Experimental: as §1

[5] = system: HCT116 colon adenocarcinoma cells; assay: Binding of 32P-labeled decapeptides to cell lines; conditions: two-hour incubation, washes; average
Experimental: as §1

[6] = system: HT1080 fibrosarcoma cells; assay: Binding of 32P-labeled decapeptides to cell lines; conditions: two-hour incubation, washes
Experimental: as §1

[7] = system: human embryonic kidney cell line 293H; assay: Binding of 32P-labeled decapeptides to cell lines; conditions: two-hour incubation, washes
Experimental: as §1

[8] = two hours incubation, three wash steps, overnight incubation in medium

In the case of “GSRRASVASA (synthetic or recombinant sequence) [MA5]”, the “retention of radioactivity (in words)” value ([1]; five of sixteen cell lines) is reported as “very strong retention of radioactivity”, the “initially retained radioactive counts retained by cells” value ([1]; washes, overnight incubation) is reported as “approximately 12%” and the “32P counts per minute (cpm) remaining bound” value [2] is reported as 534 cpm per 10,000. The “average cpm of the eleven nonbinding cell lines” value ([3]; two-hour incubation, 10,000 cells, washed three times) was 365 cpm, the “mean cpm values of blank wells and nonbinding cell lines” value ([3]; two-hour incubation, washes) was “less than 550 cpm” and the “retained counts per hour per cell” value ([4]; after overnight incubation) was 348 counts per hour, per cell. The “retained counts extrapolated per cell per day” value ([4]; after overnight incubation, extrapolated) was “over 8,300 counts per cell per day”, the “percentage of the total radioactive counts present in the incubation well retained by cells” value ([4]; after two-hour incubation) was “approximately 18%” and the “time to plateau of 32P-peptide release into medium” value ([4]; after washing) was ≤ 24 h. The “retained counts per cell extrapolated over a potential 2-week exposure period” value ([4]; extrapolated over 2 weeks) was “over 87,000 counts per cell”, the “time by which the majority of total released counts are released” value ([4]; release after washing over a 48-hour time period) was “released by nine hours of incubation” and the “cpm retained by cells after overnight incubation” value ([4]; triplicate wells containing 10,000 cells each, three washes, overnight at 37 C) was 58,305 cpm. For the same sequence, the “relative binding among decapeptides (in words)” value ([4]; two hour incubation) was “most efficient binding decapeptide”, the “radioactive dose transferred per cell” value ([4]; two hour incubation, wash, immediate determination of retained radioactivity) was “over 29 counts per minute per cell” and the “originally retained 32P isotope released” value [4, 8] was 88%. For the same sequence, the “originally retained 32P isotope retained by cells” value [4, 8] was 12%, the “retention difference between decapeptide variants” value ([4]; two hours' incubation, variant MA2 vs. variant MA5) was 70 fold and the “32P counts per minute (cpm) remaining bound” value ([4]; two-hour incubation, washes with complete medium, average of triplicate wells) was 298,639 cpm per 10,000 cells. For the same sequence, the “32P counts per minute (cpm) remaining bound” value [5] was 131,998 cpm per 10,000 cells, the “32P counts per minute (cpm) remaining bound” value [6] was 367 cpm and the “32P counts per minute (cpm) remaining bound” value [7] was 429 cpm per 10,000 cells.
